Experimental findings from patent US10287301B2 (Achillion Pharmaceuticals, Inc., priority 2015, dated 2019) are described below.

The target of the assay is Human Factor D (Homo sapiens (Human), UniProt P00746). Kind of assay: Human Factor D Assay. In kind it is biochemical. Summed up:
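Thioesterase activity monitored with Z-L-Lys-SBzl plus Ellman's reagent (DTNB), each 100 μM final, after 5 min room-temperature compound preincubation of 80 nM human serum Factor D in pH 7.5 Tris (50 mM)/1M NaCl.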

Where [1] appears, read: Human Factor D assay of Example 8, Table 2, read-out: IC50.
[2] abbreviates: Table 3, Human Factor D 80 nM, substrate Z-L-Lys-SBzl, read-out: IC50 (Stars).
Where [3] appears, read: Human Factor D 80 nM, substrate Z-L-Lys-SBzl, read-out: IC50.
Where [4] appears, read: Human Factor D, Table 3, read-out: IC50.

Structures are written as SMILES. Read-outs that look alike come from different tables or passages of the source.

Human Factor D, sequence (P00746 26-253): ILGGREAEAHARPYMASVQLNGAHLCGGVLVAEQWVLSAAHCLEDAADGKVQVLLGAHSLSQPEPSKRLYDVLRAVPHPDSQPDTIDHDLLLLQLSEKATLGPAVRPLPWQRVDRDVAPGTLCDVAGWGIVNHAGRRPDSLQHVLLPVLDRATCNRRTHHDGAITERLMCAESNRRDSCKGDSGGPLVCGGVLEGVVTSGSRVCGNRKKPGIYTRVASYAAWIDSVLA

As a reminder, the IC50 is the midpoint of a concentration-inhibition curve. For the molecule `CC(=O)c1nn(CC(=O)N2[C@@H]3C[C@@H]3C[C@H]2C(=O)Nc2cccc(Br)n2)c2ccc(-c3cnc4ccnn4c3)cc12` [Compound 238, (1R,3S,5R)-2-(2-(3-acetyl-5-(pyrazolo[1,5-a]pyrimidin-6-yl)-1H-indazol-1-yl)acetyl)-N-(6-bromopyridin-2-yl)-2-azabicyclo[3.1.0] hexane-3-carboxamide], under setting [1], the half-inhibitory concentration (IC50) was less than 1000 nM.

Take `CNC(=O)c1nn(CC(=O)N2C[C@H](F)C[C@H]2C(=O)Nc2cccc(Br)n2)c2ccc(-c3cnc(C)nc3)cc12` [Compound 424, 1-(2-((2S,4R)-2-((6-Bromopyridin-2-yl)carbamoyl)-4-fluoropyrrolidin-1-yl)-2-oxoethyl)-N-methyl-5-(2-methylpyrimidin-5-yl)-1H-indazole-3-carboxamide]: under setting [2], the IC50 was less than 1000 nM.

As for `CC(=O)c1cn(CC(=O)N2C[C@H](F)C[C@H]2C(=O)Nc2cccc(Br)n2)c2ccc(-c3ccc(C)nc3)cc12` [Compound 120, (2S,4R)-1-(2-(3-acetyl-5-(6-methylpyridin-3-yl)-1H-indol-1-yl)acetyl)-N-(6-bromopyridin-2-yl)-4-fluoropyrrolidine-2-carboxamide], the IC50 under setting [3] is less than 1000 nM.

Regarding `CCOC(=O)Cc1ncc(-c2ccc3c(c2)c(C(C)=O)nn3CC(=O)N2C[C@H](F)C[C@H]2C(=O)Nc2cccc(Br)n2)cn1` [Compound 537, Ethyl 2-(5-(3-acetyl-1-(2-((2S,4R)-2-((6-bromopyridin-2-yl)carbamoyl)-4-fluoropyrrolidin-1-yl)-2-oxoethyl)-1H-indazol-5-yl)pyrimidin-2-yl)acetate], the IC50 under setting [2] is less than 1000 nM. In the case of `CC(=O)c1nn(CC(=O)N2C[C@H](F)C[C@H]2C(=O)Nc2cccc(Br)n2)c2ccc(N3CCn4c(nnc4C(F)(F)F)C3)cc12` [Compound 244, (2S,4R)-1-(2-(3-acetyl-5-(3-(trifluoromethyl)-5,6-dihydro-[1,2,4]triazolo[4,3-a]pyrazin-7(8H)-yl)-1H-indazol-1-yl)acetyl)-N-(6-bromopyridin-2-yl)-4-fluoropyrrolidine-2-carboxamide], under setting [1], the IC50 was less than 1000 nM. As for `CC(=O)n1cc(NC(=O)N2C[C@H](F)C[C@H]2C(=O)Nc2cccc(-c3ccccc3Cl)c2F)c2ccc(-c3cnc(C)nc3)cc21` [Compound 293], the IC50 under setting [1] is less than 1000 nM. In the case of `CC(=O)O[C@H]1[C@@H](C(=O)Nc2cccc(Br)n2)N(C(=O)Cn2nc(C(C)=O)c3cc(-c4cnc(C)nc4)ccc32)C[C@@H]1F` [Compound 452, (2S,3S,4S)-1-(2-(3-Acetyl-5-(2-methylpyrimidin-5-yl)-1H-indazol-1 yl)acetyl)-2-((6-bromopyridin-2-yl)carbamoyl)-4-fluoropyrrolidin-3-yl acetate], the IC50 under setting [2] was less than 1000 nM.

For the molecule `CC(=O)c1nn(CC(=O)N2C[C@H]3C[C@H]3[C@H]2C(=O)Nc2ccn(CC(F)(F)F)n2)c2ccc(-c3cnc(C)nc3)cc12` [Compound 638, (1R,2S,5S)-3-(2-(3-Acetyl-5-(2-methylpyrimidin-5-yl)-1H-indazol-1-yl)acetyl)-N-(1-(2,2,2-trifluoroethyl)-1H-pyrazol-3-yl)-3-azabicyclo[3.1.0]hexane-2-carboxamide], the IC50 under setting [4] was less than 1000 nM. On to `CC(=O)c1cn(CC(=O)N2C[C@H](F)C[C@H]2C(=O)Nc2cccc(Br)n2)c2ccc(-c3cnc(C#N)nc3)cc12` [Compound 82, (2S,4R)-1-(2-(3-acetyl-5-(2-cyanopyrimidin-5-yl)-1H-indol-1-yl)acetyl)-N-(6-bromopyridin-2-yl)-4-fluoropyrrolidine-2-carboxamide], for which the IC50 under setting [3] is less than 1000 nM. On to `COc1ncc(-c2ccc3c(c2)c(C(C)=O)nn3CC(=O)N2C[C@H]3C[C@H]3[C@H]2C(=O)Nc2nc(Br)ccc2C)cn1` [Compound 634, (1R,2S,5S)-3-(2-(3-Acetyl-5-(2-methoxypyrimidin-5-yl)-1H-indazol-1-yl)acetyl)-N-(6-bromo-3-methylpyridin-2-yl)-3-azabicyclo[3.1.0]hexane-2-carboxamide], for which the IC50 under setting [4] is less than 1000 nM. As for `NC(=O)c1nn(CC(=O)N2C[C@H](F)C[C@H]2C(=O)Nc2nc(-c3cccc(Cl)c3)ns2)c2ccc(-c3ccnnc3)cc12` [Compound 146, 1-(2-((2S,4R)-2-(3-(3-chlorophenyl)-1,2,4-thiadiazol-5-ylcarbamoyl)-4-fluoropyrrolidin-1-yl)-2-oxoethyl)-5-(pyridazin-4-yl)-1H-indazole-3-carboxamide], the IC50 under setting [3] was greater than 10000 nM. For `CC(=O)c1nn(CC(=O)N2C[C@H](F)C[C@H]2C(=O)Nc2cncc(Br)n2)c2ccc(-c3ccc4nc(C)nn4c3)cc12` [Compound 325, (2S,4R)-1-(2-(3-acetyl-5-(2-methyl-[1,2,4]triazolo[1,5-a]pyridin-6-yl)-1H-indazol-1-yl)acetyl)-N-(6-bromopyrazin-2-yl)-4-fluoropyrrolidine-2-carboxamide], the IC50 under setting [1] was less than 1000 nM. Same read-out and setting: in the case of `NC(=O)c1nn(CC(=O)N2C[C@H](F)C[C@H]2C(=O)Nc2cccc(Br)n2)c2ccc(-c3[nH]nnc3-c3cncnc3)cc12` [Compound 251, 1-(2-((2S,4R)-2-(6-bromopyridin-2-ylcarbamoyl)-4-fluoropyrrolidin-1-yl)-2-oxoethyl)-5-(4-(pyrimidin-5-yl)-1H-1,2,3-triazol-5-yl)-1H-indazole-3-carboxamide] it was less than 1000 nM. Consider `COc1ncc(-c2ccc3c(c2)c(C(N)=O)nn3CC(=O)N2C[C@H](F)C[C@H]2C(=O)Nc2cccc(-c3ccccc3Cl)c2F)cn1` [Compound 29, 1-(2-((2S,4R)-2-(2′-chloro-2-fluorobiphenyl-3-ylcarbamoyl)-4-fluoropyrrolidin-1-yl)-2-oxoethyl)-5-(2-methoxypyrimidin-5-yl)-1H-indazole-3-carboxamide], for which the IC50 under setting [3] is less than 1000 nM.

`CCOC(=O)c1cc2ncc(-c3ccc4c(c3)c(C(C)=O)nn4CC(=O)N3C[C@H](F)C[C@H]3C(=O)Nc3cccc(Br)n3)cn2n1` [Compound 287, ethyl 6-(3-acetyl-1-(2-((2S,4R)-2-(6-bromopyridin-2-ylcarbamoyl)-4-fluoropyrrolidin-1-yl)-2-oxoethyl)-1H-indazol-5-yl)pyrazolo[1,5-a]pyrimidine-2-carboxylate]: the IC50 under setting [1] was less than 1000 nM. Consider `NC(=O)c1nn(CC(=O)N2C[C@H](F)C[C@H]2C(=O)Nc2ccc(O)cn2)c2ccc(-c3ccnnc3)cc12` [Compound 176, 1-(2-((2S,4R)-4-fluoro-2-(5-hydroxypyridin-2-ylcarbamoyl)pyrrolidin-1-yl)-2-oxoethyl)-5-(pyridazin-4-yl)-1H-indazole-3-carboxamide], for which the IC50 under setting [3] is greater than 10000 nM. For `CC(=O)c1nn(CC(=O)N2[C@H](C(=O)Nc3nc(Br)ccc3C)C[C@@]3(C)C[C@@H]23)c2ccc(-c3cnc(C)nc3)cc12` [Compound 485, (1R,3S,5R)-2-(2-(3-Acetyl-5-(2-methylpyrimidin-5-yl)-1H-indazol-1-yl)acetyl)-N-(6-bromo-3-methylpyridin-2-yl)-5-methyl-2-azabicyclo[3.1.0]hexane-3-carboxamide], the IC50 under setting [2] is less than 1000 nM. On the same count and under the same terms, under `CC(=O)c1nn(CC(=O)N2C[C@H](F)C[C@H]2C(=O)Nc2cccc(Br)n2)c2cc(CN(C)C)c(-c3cnc(C)nc3)cc12` [Compound 387, (2S,4R)-1-(2-(3-Acetyl-6-((dimethylamino)methyl)-5-(2-methylpyrimidin-5-yl)-1H-indazol-1-yl)acetyl)-N-(6-bromopyridin-2-yl)-4-fluoropyrrolidine-2-carboxamide] stands less than 1000 nM; under `COC[C@@]12C[C@@H](C(=O)Nc3cccc(Br)n3)N(C(=O)Cn3nc(C(C)=O)c4cc(-c5cnc(C)nc5)ccc43)[C@@H]1C2` [Compound 416, (1R,3S,5S)-2-(2-(3-Acetyl-5-(2-methylpyrimidin-5-yl)-1H-indazol-1-yl)acetyl)-N-(6-bromopyridin-2-yl)-5-(methoxymethyl)-2-azabicyclo[3.1.0]hexane-3-carboxamide], less than 1000 nM. For `CC(=O)c1nn(CC(=O)N2[C@H](C(=O)Nc3ccn(CC(F)(F)F)n3)C[C@@]3(C)C[C@@H]23)c2ccc(-c3cnc(C)nc3)cc12` [Compound 625], the IC50 under setting [4] is less than 1000 nM.

Take `CC(=O)c1nn(CC(=O)N2[C@H](C(=O)Nc3nc(Br)ccc3C)C[C@@]3(C)C[C@@H]23)c2c(C)cc(-c3cnc(C)nc3)cc12` [Compound 636, (1R,3S,5R)-2-(2-(3-Acetyl-7-methyl-5-(2-methylpyrimidin-5-yl)-1H-indazol-1-yl)acetyl)-N-(6-bromo-3-methylpyridin-2-yl)-5-methyl-2-azabicyclo[3.1.0]hexane-3-carboxamide]: under setting [4], the IC50 is less than 1000 nM. Same read-out and setting: under `CC(=O)c1nn(CC(=O)N2[C@@H]3C[C@@H]3C[C@H]2C(=O)Nc2nc(Br)ccc2CO)c2ccc(-c3cnc(C)nc3)cc12` [Compound 574, (1R,3S,5R)-2-(2-(3-acetyl-5-(2-methylpyrimidin-5-yl)-1H-indazol-1-yl)acetyl)-N-(6-bromo-3-(hydroxymethyl)pyridin-2-yl)-2-azabicyclo[3.1.0] hexane-3-carboxamide] stands less than 1000 nM. Regarding `Cc1ncc(-c2ccc3c(c2)c(C(N)=O)nn3CC(=O)N2C[C@H](F)C[C@H]2C(=O)Nc2cccc(Br)n2)cn1` [Compound 101, 1-(2-((2S,4R)-2-(6-bromopyridin-2-ylcarbamoyl)-4-fluoropyrrolidin-1-yl)-2-oxoethyl)-5-(2-methylpyrimidin-5-yl)-1H-indazole-3-carboxamide], the IC50 under setting [3] is less than 1000 nM. On to `CC(=O)c1nn(CC(=O)N2C[C@H](F)C[C@H]2C(=O)Nc2cncc(Br)n2)c2ccc(-c3cnc(C4CC4)nc3)cc12` [Compound 354, (2S,4R)-1-(2-(3-Acetyl-5-(2-cyclopropylpyrimidin-5-yl)-1H-indazol-1-yl)acetyl)-N-(6-bromopyrazin-2-yl)-4-fluoropyrrolidine-2-carboxamide], for which, under setting [2], the IC50 is less than 1000 nM. In turn, `Cc1ncc(-c2ccc3c(c2)c([C@H](C)O)nn3CC(=O)N2C[C@H](F)C[C@H]2C(=O)Nc2cccc(Br)n2)cn1` [Compound 425, (2S,4R)—N-(6-Bromopyridin-2-yl)-4-fluoro-1-(2-(3-((S)-1-hydroxyethyl)-5-(2-methylpyrimidin-5-yl)-1H-indazol-1-yl)acetyl)pyrrolidine-2-carboxamide] yielded an IC50 of 1000 to 10000 nM.
